In the NIST ThermoML archive (doi:10.1021/acs.jced.8b00854):
± gives the expanded uncertainty stated by the source.

Assays:
[1] = refractive index (Na D-line) (dimensionless); xn = mol fraction of the nth substance listed; settings: 100 kPa, Liquid, Standard Abbe refractometry
[2] = xn = mol fraction of the nth substance listed; settings: 100 kPa, Liquid, Vibrating tube method

CCCCCCn1cc[n+](C)c1.F[B-](F)(F)F [1-hexyl-3-methylimidazolium tetrafluoroborate] + O
Settings	mass density, [2] [kg/m3]	refractive index, [1]
293.15 K, x1 = 0.3006	1117.21 ± 2	1.415 ± 0.0019
293.15 K, x1 = 0.4005	1125.26 ± 2	1.418 ± 0.0016
293.15 K, x1 = 0.4999	1132.22 ± 2	1.4195 ± 0.0017
293.15 K, x1 = 0.6008	1136.97 ± 2	1.422 ± 0.0016
293.15 K, x1 = 0.7004	1140.58 ± 2	1.4245 ± 0.0016
293.15 K, x1 = 0.7996	1143.29 ± 2	1.425 ± 0.0016
293.15 K, x1 = 0.8997	1145.34 ± 2	1.427 ± 0.0016
303.15 K, x1 = 0.3006	1109.91 ± 2	1.414 ± 0.0017
303.15 K, x1 = 0.4005	1117.8 ± 2	1.415 ± 0.0017
303.15 K, x1 = 0.4999	1125.06 ± 2	1.417 ± 0.0016
303.15 K, x1 = 0.6008	1129.88 ± 2	1.42 ± 0.0016
303.15 K, x1 = 0.7004	1133.55 ± 2	1.422 ± 0.0016
303.15 K, x1 = 0.7996	1136.29 ± 2	1.4235 ± 0.0016
303.15 K, x1 = 0.8997	1138.36 ± 2	1.425 ± 0.0016
313.15 K, x1 = 0.3006	1102.56 ± 2	1.409 ± 0.0017
313.15 K, x1 = 0.4005	1110.53 ± 2	1.412 ± 0.0016
313.15 K, x1 = 0.4999	1117.91 ± 2	1.4165 ± 0.0016
313.15 K, x1 = 0.6008	1122.81 ± 2	1.419 ± 0.0016
313.15 K, x1 = 0.7004	1126.54 ± 2	1.421 ± 0.0016
313.15 K, x1 = 0.7996	1129.34 ± 2	1.4215 ± 0.0016
313.15 K, x1 = 0.8997	1131.42 ± 2	1.423 ± 0.0016
323.15 K, x1 = 0.3006	1095.15 ± 2	1.408 ± 0.0016
323.15 K, x1 = 0.4005	1103.23 ± 2	1.4115 ± 0.0016
323.15 K, x1 = 0.4999	1110.76 ± 2	1.415 ± 0.0016
323.15 K, x1 = 0.6008	1115.77 ± 2	1.417 ± 0.0016
323.15 K, x1 = 0.7004	1119.58 ± 2	1.419 ± 0.0016
323.15 K, x1 = 0.7996	1122.43 ± 2	1.42 ± 0.0016
323.15 K, x1 = 0.8997	1124.55 ± 2	1.421 ± 0.0016
333.15 K, x1 = 0.3006	1087.71 ± 2	1.4075 ± 0.0016
333.15 K, x1 = 0.4005	1095.9 ± 2	1.4115 ± 0.0016
333.15 K, x1 = 0.4999	1103.62 ± 2	1.415 ± 0.0016
333.15 K, x1 = 0.6008	1108.78 ± 2	1.4155 ± 0.0016
333.15 K, x1 = 0.7004	1112.66 ± 2	1.417 ± 0.0016
333.15 K, x1 = 0.7996	1115.58 ± 2	1.418 ± 0.0016
333.15 K, x1 = 0.8997	1117.73 ± 2	1.419 ± 0.0017
343.15 K, x1 = 0.3006	1080.23 ± 2	1.4075 ± 0.002
343.15 K, x1 = 0.4005	1088.51 ± 2	1.4095 ± 0.0016
343.15 K, x1 = 0.4999	1096.51 ± 2	1.4125 ± 0.0017
343.15 K, x1 = 0.6008	1101.81 ± 2	1.414 ± 0.0016
343.15 K, x1 = 0.7004	1105.77 ± 2	1.4145 ± 0.0016
343.15 K, x1 = 0.7996	1108.76 ± 2	1.416 ± 0.0017
343.15 K, x1 = 0.8997	1110.94 ± 2	1.4165 ± 0.0017
